Data reported in US20250313593A1, “DIPEPTIDE DERIVATIVE COMPOSITION, PREPARATION METHOD THEREFOR, AND USE THEREOF” (BEIJING CONTINENT PHARMACEUTICALS CO., LTD, priority 2022, published 2025).
Entries after “also recorded” stand apart in the source; their conditions may differ.

How the values were obtained:
[1] = system: liver failure; conditions: background; CN201110025509.8 and CN201110025516.8; cited from earlier work
[2] = system: cells; conditions: background; cited from earlier work
[3] = Stability of F573 solution before and after high-temperature sterilization; type: physicochemical; conditions: for Content / Related substances: propylene glycol/water (80%/20%), pH 4.0-5.0
Method: 1.2 Investigation of Stability of F573 Injection
F573 was dissolved in the solution of propylene glycol/water (80%/20%; pH was adjusted to 4.0-5.0), and the resulting mixture was sterilized at a high temperature of 120° C. for 15 min and then examined (the results are shown in Table A-2 below).

[4] = Screening injection solvents for F573 (solvent effects, dissolution behavior); type: physicochemical; conditions: 2 ml:30 mg F573
Text: 1.1 for the Purpose of Preparing F573 Injection, Screening Injection Solvents

[5] = After sterilization at 120° C. for 15 min
[6] = after the high-temperature sterilization

Content [3, 5]: 8.82 mg/mL
Related substances [3, 5]: 47.22%
Content ([3]; Before sterilization): 16.08 mg/mL
Related substances ([3]; Before sterilization): 1.80%
Increase in the related substances [3, 6]: about 50%
Reduction in the F573 content [3, 6]: about 50%
Stability in aqueous solution ([3]; aqueous solution, moist heat sterilization): poor stability
Dissolution behavior ([4]; Ethanol/water (10%/90%)): Turbid
Dissolution behavior ([4]; Oil for injection, Vegetable oil): Turbid
Dissolution behavior ([4]; Propylene glycol/water (50%/50%)): Turbid
Dissolution behavior ([4]; Water for injection, adjusting pH to 2.0-2.5): Turbid
Dissolution behavior ([4]; Water for injection, adjusting pH to 4.0-5.0): Turbid
SMILES: CC(C)[C@H](NC(=O)OCc1ccccc1)C(=O)NC(CC(=O)O)C(=O)CF (stereo partly drawn) [F573, 3-(2-benzyloxycarbonylamino-3-methyl-butanamido)-5-fluoro-4-oxo-pentanoic acid]
Efficacy on liver failure [1]: remarkable efficacy on liver failure
Toxicity on cells [2]: no significant toxicity on cells
Dissolution behavior ([4]; Propylene glycol/water (80%/20%), adjusting pH to 4.0-5.0): completely dissolved; also recorded: Clarified
